Data reported in patent US20210355235A1, “Compositions and Methods For Treating Cancer with Anti-Renalase antibodies and Anti-PD1 antibodies” (YALE UNIVERSITY, priority 2017, published 2021).

Tests used:
renal ischemia = renal ischemia and reperfusion in WT mice; assay type: in vivo, mouse; details: 30 minutes of renal ischemia and reperfusion
Procedure: FIG. 3 is a chart showing that ERK or AKT inhibition abrogates protective effect of renalase peptide: WT mice subjected to sham surgery or to 30 minutes of renal ischemia and reperfusion; RP-[…] or vehicle (saline) injected 10 minutes before renal ischemia. ERK inhibitor PD98059 or the PI3K/AKT inhibitor wortmannin abrogated RP-[…]'s protective effect.

MiaPaCa2 cells = details: pretreatment before rRNLS 30 μg/ml

Row | SMILES | effect on RP-H220's protective effect (renal ischemia) | effect on rRNLS' protective effect (MiaPaCa2 cells)
1 | COc1cccc(-c2cc(=O)c3ccccc3o2)c1N [PD98059] | abrogated | –
2 | N#CC(=C(/N)Sc1ccccc1N)/C(C#N)=C(\N)Sc1ccccc1N [U0126] | – | abrogated
